Test results from patent US6962937B2, “Imidazolidine derivatives, their preparation and their use” (Aventis Pharma Deutschland GmbH, priority 2001, dated 2005).
Where a name gives a salt, the structure may show the parent alone.

Target: T1, interaction between VCAM-1 and VLA-4 (Homo sapiens, UniProt P05556+P13612)
T1 construct: supplied in their natural form as surface molecules on human U937 cells; host or cells: U937 cells (endogenous VLA-4); The partner hVCAM-1(1-3)-IgG was made in house in transfected COS cells (ATCC CRL1651) and used as culture supernatant
T1 sequence (P13612 34-1032): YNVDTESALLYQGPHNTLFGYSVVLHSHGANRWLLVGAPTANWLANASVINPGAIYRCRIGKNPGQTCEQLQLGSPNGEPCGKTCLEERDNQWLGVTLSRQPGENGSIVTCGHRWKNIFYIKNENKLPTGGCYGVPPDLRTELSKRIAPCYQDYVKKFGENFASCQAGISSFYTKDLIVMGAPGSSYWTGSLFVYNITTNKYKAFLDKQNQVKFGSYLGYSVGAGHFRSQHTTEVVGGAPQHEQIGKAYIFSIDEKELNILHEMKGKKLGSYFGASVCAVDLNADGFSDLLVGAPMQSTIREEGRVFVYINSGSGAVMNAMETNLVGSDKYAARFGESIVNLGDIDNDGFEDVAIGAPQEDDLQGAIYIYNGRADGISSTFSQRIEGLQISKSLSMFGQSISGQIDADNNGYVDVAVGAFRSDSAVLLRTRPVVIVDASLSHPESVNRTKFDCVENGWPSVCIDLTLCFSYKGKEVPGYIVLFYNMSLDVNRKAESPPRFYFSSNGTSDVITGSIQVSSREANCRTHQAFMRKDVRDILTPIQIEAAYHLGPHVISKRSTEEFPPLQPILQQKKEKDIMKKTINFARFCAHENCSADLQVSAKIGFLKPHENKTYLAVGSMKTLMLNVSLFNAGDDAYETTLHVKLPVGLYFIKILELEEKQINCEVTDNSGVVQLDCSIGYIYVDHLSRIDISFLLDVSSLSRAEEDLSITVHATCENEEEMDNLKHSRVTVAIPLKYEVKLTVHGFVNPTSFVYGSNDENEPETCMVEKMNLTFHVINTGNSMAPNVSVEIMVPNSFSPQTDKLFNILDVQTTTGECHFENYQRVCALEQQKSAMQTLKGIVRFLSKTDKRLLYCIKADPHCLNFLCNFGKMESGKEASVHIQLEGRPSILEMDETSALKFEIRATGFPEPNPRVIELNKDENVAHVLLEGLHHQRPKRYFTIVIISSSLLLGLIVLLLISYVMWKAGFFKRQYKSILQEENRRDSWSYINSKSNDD
T1 sequence (P05556 21-798): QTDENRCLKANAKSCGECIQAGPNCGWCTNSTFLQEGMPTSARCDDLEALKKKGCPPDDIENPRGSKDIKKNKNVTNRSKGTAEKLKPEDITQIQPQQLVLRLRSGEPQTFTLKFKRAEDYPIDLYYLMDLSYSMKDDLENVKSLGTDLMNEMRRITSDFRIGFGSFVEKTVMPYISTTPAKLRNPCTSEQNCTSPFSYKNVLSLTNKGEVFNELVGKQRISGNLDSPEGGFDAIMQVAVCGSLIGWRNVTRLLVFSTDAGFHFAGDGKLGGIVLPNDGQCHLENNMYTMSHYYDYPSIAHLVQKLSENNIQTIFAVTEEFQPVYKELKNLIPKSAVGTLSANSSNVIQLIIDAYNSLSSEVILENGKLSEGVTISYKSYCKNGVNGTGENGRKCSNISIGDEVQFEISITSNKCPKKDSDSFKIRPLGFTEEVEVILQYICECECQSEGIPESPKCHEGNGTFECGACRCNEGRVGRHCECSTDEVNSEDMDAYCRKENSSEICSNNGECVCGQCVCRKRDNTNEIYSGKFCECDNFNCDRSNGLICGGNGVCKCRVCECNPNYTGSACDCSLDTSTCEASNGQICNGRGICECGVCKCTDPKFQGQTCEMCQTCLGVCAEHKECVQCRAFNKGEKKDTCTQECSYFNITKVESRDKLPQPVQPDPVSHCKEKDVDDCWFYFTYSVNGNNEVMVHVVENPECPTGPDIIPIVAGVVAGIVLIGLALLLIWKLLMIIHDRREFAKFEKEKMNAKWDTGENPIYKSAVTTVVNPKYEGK
Assay: U937/VCAM-1 cell adhesion test (adhesion of U937 cells to hVCAM-1 (1-3)-IgG)
Type: cell-based
Settings: inhibition of adhesion of human U937 cells (ATCC CRL 1593) to hVCAM-1 (1-3)-IgG
Text: A) U937/VCAM-1 Cell Adhesion Test (Assay for Measuring the Adhesion of U937 Cells (ATCC CRL 1593) to hVCAM-1 (1-3)-IqG)
The assay described below which is specific for the interaction between VCAM-1 and VLA-4, is used as the method for testing the activity of the compounds of the formula I on this interaction. The cellular binding partners, that is the VLA-4 integrins, are supplied in their natural form as surface molecules on human U937 cells (ATCC CRL 1593) which belong to the leukocyte group. The specific binding partners employed are recombinantly prepared soluble fusion proteins which consist of the extracytoplasmic domain of human VCAM-1 and the constant region of a human immunoglobulin of the IgG1 subclass.
1. Preparation of Human VCAM-1 (1-3)-IqG and Human CD4-IgG
A gene construct for expressing the extracellular domain of human VCAM-1 linked to the gene sequence for the heavy chain of human immunoglobulin IgG1 (hinge, CH2 and CH3 regions) (from Dr. Brian Seed, Massachusetts General Hospital, Boston, USA; cf. Damle and Aruffo, Proc. Natl. Acad. Sci. USA, 1991, 88:6403) was employed. The soluble fusion protein hVCAM-1 (1-3)-IgG contained the three aminoterminal extracellular immunoglobulin-like domains of human VCAM-1 (Damle and Aruffo, Proc. Natl. Acad. Sci. USA, 1991, 88:6403). CD4-IgG (Zettimeissl et al., DNA and Cell Biology, 1990, 9:347) was used as the fusion protein for negative controls. The recombinant proteins were expressed as soluble proteins following the DEAE/dextran-mediated transfection of DNA into COS cells (ATCC CRL1651) using standard procedures (Ausubel et a., Current protocols in molecular biology, John Wiley & Sons, Inc., 1994).
2. Assay for Measuring the Adhesion of U937 Cells to hVCAM-1 (1-3)-IgG […]
2.6 U937 cells were incubated in Fc receptor blocking buffer for 20 minutes and then pipetted in at a concentration of 1×10^6/mL and in a quantity of 100 μL per well (final volume: 125 μL/well). […]

Structure (SMILES) | IC50 [nM]
COc1cc(CN2C(=O)N([C@H](CN[C@@H](CC(=O)O)c3ccc4c(c3)OCO4)CC3CC3)C(=O)C2(C)C)ccc1NC(=O)Nc1ccccc1C [Example 17, (S)-3-((S)-2-(4,4-Dimethyl-3-(4-(3-(2-methylphenyl)ureido)-3-methoxybenzyl)-2,5-dioxoimidazolidin-1-yl)-3-cyclopropylpropylamino)-3-(3,4-methylenedioxyphenyl)propionic acid hydrochloride] | 24.4
COc1cc(CN2C(=O)N([C@H](CN[C@@H](CC(=O)O)c3ccccc3)CC3CC3)C(=O)C2(C)C)ccc1NC(=O)Nc1ccccc1C [Example 6, (S)-3-((S)-2-(4,4-Dimethyl-3-(4-(3-(2-methylphenyl)ureido)-3-methoxybenzyl)-2,5-dioxoimidazolidin-1-yl)-3-cyclopropylpropylamino)-3-phenylpropionic acid hydrochloride] | 66.2
COc1cc(CN2C(=O)N([C@H](CN[C@@H](CC(=O)O)c3ccc(OC)c(OC)c3)CC3CC3)C(=O)C2(C)C)ccc1NC(=O)Nc1ccccc1C [Example 14, (S)-3-((S)-2-(4,4-Dimethyl-3-(4-(3-(2-methylphenyl)ureido)-3-methoxybenzyl)-2,5-dioxoimidazolidin-1-yl)-3-cyclopropylpropylamino)-3-(3,4-dimethoxyphenyl)propionic acid hydrochloride] | 8.2
